In brackets after ≈: the same amount, converted by molar mass. Where two headings read alike, the source gives them in different places.
How the values were obtained:
Format in all cases: cell-based
Porphyromonas spp. = experiment: MIC, agar dilution, anaerobic bacteria (Example 9, Tables 19, 24); conditions: for MIC: (n)=Compound A µg/mL, 0=Compound A alone antibacterial
Gram-positive bacteria = experiment: MIC, agar dilution, anaerobic bacteria (Example 9, Tables 21, 26)
Prevotella spp. = experiment: MIC, agar dilution, anaerobic bacteria (Example 9, Tables 18, 23); conditions: for MIC: (n)=Compound A µg/mL, 0=Compound A alone antibacterial

SMILES: Cc1ncc([N+](=O)[O-])n1CCO [Metronidazole]
- MIC (Porphyromonas spp.; KUB No. 6663 Porphyromonas gingivalis): ≤ 0.12 µg/mL
- MIC (Porphyromonas spp.; KUB No. 6666 Porphyromonas gingivalis): ≤ 0.12 µg/mL
- MIC (Porphyromonas spp.; KUB No. 6667 Porphyromonas gingivalis): ≤ 0.12 µg/mL
- MIC (Porphyromonas spp.; KUB No. 6668 Porphyromonas gingivalis): ≤ 0.12 µg/mL
- MIC (Porphyromonas spp.; KUB No. 6669 Porphyromonas gingivalis): ≤ 0.12 µg/mL
- MIC (Porphyromonas spp.; KUB No. 6670 Porphyromonas gingivalis): ≤ 0.12 µg/mL
- MIC (Porphyromonas spp.; KUB No. 6671 Porphyromonas gingivalis): ≤ 0.12 µg/mL
- MIC (Porphyromonas spp.; KUB No. 6672 Porphyromonas gingivalis): ≤ 0.12 µg/mL
- MIC (Porphyromonas spp.; KUB No. 6673 Porphyromonas gingivalis): ≤ 0.12 µg/mL
- MIC (Porphyromonas spp.; KUB No. 6674 Porphyromonas gingivalis): ≤ 0.12 µg/mL
- MIC (Porphyromonas spp.; KUB No. 6676 Porphyromonas gingivalis): ≤ 0.12 µg/mL
- MIC (Porphyromonas spp.; KUB No. 6677 Porphyromonas gingivalis): ≤ 0.12 µg/mL
- MIC (Porphyromonas spp.; KUB No. 6678 Porphyromonas gingivalis): ≤ 0.12 µg/mL
- MIC (Porphyromonas spp.; KUB No. 6679 Porphyromonas gingivalis): ≤ 0.12 µg/mL
- MIC (Porphyromonas spp.; KUB No. 6680 Porphyromonas gingivalis): ≤ 0.12 µg/mL
- MIC (Porphyromonas spp.; KUB No. 6681 Porphyromonas gingivalis): ≤ 0.12 µg/mL
- MIC (Porphyromonas spp.; KUB No. 6682 Porphyromonas gingivalis): ≤ 0.12 µg/mL
- MIC (Porphyromonas spp.; KUB No. 6683 Porphyromonas gingivalis): ≤ 0.12 µg/mL
- MIC (Porphyromonas spp.; KUB No. 6684 Porphyromonas gingivalis): ≤ 0.12 µg/mL
- MIC (Porphyromonas spp.; KUB No. 6685 Porphyromonas gingivalis): ≤ 0.12 µg/mL
- MIC (Porphyromonas spp.; KUB No. 6686 Porphyromonas gingivalis): ≤ 0.12 µg/mL
- MIC (Porphyromonas spp.; KUB No. 6687 Porphyromonas gingivalis): ≤ 0.12 µg/mL
- MIC (Porphyromonas spp.; KUB No. 6688 Porphyromonas gingivalis): ≤ 0.12 µg/mL
- MIC (Porphyromonas spp.; Porphyromonas, KUB No. 6665 Porphyromonas assaccharolytica): ≤ 0.12 µg/mL
- MIC50 (Porphyromonas spp.; Porphyromonas, table at the place of Table 24, Prevotella spp., read-out: MIC50): ≤ 0.12 µg/mL
- MIC90 (Porphyromonas spp.; Porphyromonas, table at the place of Table 24, Prevotella spp., read-out: MIC90): ≤ 0.12 µg/mL
- MICrange (Porphyromonas spp.; table at the place of Table 24, Prevotella spp.): ≤0.12 µg/mL
- MIC (Gram-positive bacteria; ATCC43255, KUB No. 3518 Clostridioides difficile ATCC 43255, read-out: MIC): 0.5 µg/mL (≈ 2.92 µM)
- MIC (Gram-positive bacteria; ATCC700057, KUB No. 2978 Clostridioides difficile ATCC 700057, read-out: MIC): 0.5 µg/mL (≈ 2.92 µM)
- MIC (Gram-positive bacteria; ATCCBAA1803, KUB No. 3511 Clostridioides difficile ATCC BAA-1803, read-out: MIC): 1 µg/mL (≈ 5.84 µM)
- MIC (Gram-positive bacteria; ATCCBAA1870, KUB No. 3385 Clostridioides difficile ATCC BAA-1870, read-out: MIC): 0.5 µg/mL (≈ 2.92 µM)
- MIC (Gram-positive bacteria; Cutibacterium acnes, ATCC11827): > 64 µg/mL
- MIC (Gram-positive bacteria; Finegoldia magna, ATCC29328): 1 µg/mL (≈ 5.84 µM)
- MIC50 (Gram-positive bacteria; Gram-positive bacteria, read-out: MIC50): 0.5 µg/mL (≈ 2.92 µM)
- MIC90 (Gram-positive bacteria; Gram-positive bacteria, read-out: MIC90): 2 µg/mL (≈ 11.7 µM)
- MIC (Gram-positive bacteria; KUB No. 3013 Bulleidia extructa, read-out: MIC): 2 µg/mL (≈ 11.7 µM)
- MIC (Gram-positive bacteria; KUB No. 3014 Atropobium rimae, read-out: MIC): 2 µg/mL (≈ 11.7 µM)
- MIC (Gram-positive bacteria; Olsenella uli): 2 µg/mL (≈ 11.7 µM)
- MIC (Gram-positive bacteria; Peptoniphilus asaccharolyticus, ATCC14963): 0.5 µg/mL (≈ 2.92 µM)
- MIC (Gram-positive bacteria; Peptoniphilus indolicus): 0.25 µg/mL (≈ 1.46 µM)
- MIC (Gram-positive bacteria; Peptostreptococcus anaerobius): 0.5 µg/mL (≈ 2.92 µM)
- MIC (Gram-positive bacteria; Schaalia odontolytica, ATCC17929, KUB No. 3488 Actinomyces odontolyticus ATCC 17929, read-out: MIC): 32 µg/mL (≈ 187 µM)
- MIC (Prevotella spp.; KUB No. 2989 Prevotella histicola): 0.5 µg/mL (≈ 2.92 µM)
- MIC (Prevotella spp.; KUB No. 2991 Prevotella intermedia): 0.5 µg/mL (≈ 2.92 µM)
- MIC (Prevotella spp.; KUB No. 2992 Prevotella buccae): 1 µg/mL (≈ 5.84 µM)
- MIC (Prevotella spp.; KUB No. 3005 Prevotella melaninogenica): 1 µg/mL (≈ 5.84 µM)
- MIC (Prevotella spp.; KUB No. 6558 Prevotella heparinolytica): 0.25 µg/mL (≈ 1.46 µM)
- MIC (Prevotella spp.; KUB No. 6559 Prevotella intermedia): 2 µg/mL (≈ 11.7 µM)
- MIC (Prevotella spp.; KUB No. 6560 Prevotella nigrescens): 0.5 µg/mL (≈ 2.92 µM)
- MIC (Prevotella spp.; KUB No. 6561 Prevotella melaninogenica): 1 µg/mL (≈ 5.84 µM)
- MIC (Prevotella spp.; KUB No. 6563 Prevotella nigrescens): 0.5 µg/mL (≈ 2.92 µM)
- MIC (Prevotella spp.; KUB No. 6564 Prevotella buccae): 2 µg/mL (≈ 11.7 µM)
- MIC (Prevotella spp.; KUB No. 6565 Prevotella nigrescens): 0.5 µg/mL (≈ 2.92 µM)
- MIC (Prevotella spp.; KUB No. 6567 Prevotella melaninogenica): 0.5 µg/mL (≈ 2.92 µM)
- MIC (Prevotella spp.; KUB No. 6568 Prevotella intermedia): 1 µg/mL (≈ 5.84 µM)
- MIC (Prevotella spp.; KUB No. 6569 Prevotella nanceiensis): 2 µg/mL (≈ 11.7 µM)
- MIC (Prevotella spp.; KUB No. 6570 Prevotella intermedia): 2 µg/mL (≈ 11.7 µM)
- MIC (Prevotella spp.; KUB No. 6571 Prevotella denticola): 0.25 µg/mL (≈ 1.46 µM)
- MIC (Prevotella spp.; KUB No. 6572 Prevotella melaninogenica): 0.5 µg/mL (≈ 2.92 µM)
- MIC (Prevotella spp.; KUB No. 6574 Prevotella oris): 0.5 µg/mL (≈ 2.92 µM)
- MIC (Prevotella spp.; KUB No. 6575 Prevotella nigrescens): 1 µg/mL (≈ 5.84 µM)
- MIC (Prevotella spp.; KUB No. 6576 Prevotella intermedia): 0.25 µg/mL (≈ 1.46 µM)
- MIC (Prevotella spp.; KUB No. 6579 Prevotella pallens): 0.5 µg/mL (≈ 2.92 µM)
- MIC (Prevotella spp.; KUB No. 6581 Prevotella intermedia): 2 µg/mL (≈ 11.7 µM)
- MIC (Prevotella spp.; KUB No. 6582 Prevotella melaninogenica): 0.5 µg/mL (≈ 2.92 µM)
- MIC (Prevotella spp.; KUB No. 6585 Prevotella baroniae): 1 µg/mL (≈ 5.84 µM)
- MIC (Prevotella spp.; KUB No. 6587 Prevotella melaninogenica): ≤ 0.12 µg/mL
- MIC (Prevotella spp.; KUB No. 6588 Prevotella nigrescens): 0.5 µg/mL (≈ 2.92 µM)
- MIC (Prevotella spp.; KUB No. 6589 Prevotella buccae): 0.5 µg/mL (≈ 2.92 µM)
- MIC (Prevotella spp.; KUB No. 6590 Prevotella buccae): 0.5 µg/mL (≈ 2.92 µM)
- MIC (Prevotella spp.; KUB No. 6591 Prevotella intermedia): 0.5 µg/mL (≈ 2.92 µM)
- MIC (Prevotella spp.; KUB No. 6592 Prevotella jejuni): 0.5 µg/mL (≈ 2.92 µM)
- MIC (Prevotella spp.; KUB No. 6600 Prevotella intermedia): 0.5 µg/mL (≈ 2.92 µM)
- MIC (Prevotella spp.; KUB No. 6601 Prevotella melaninogenica): 0.5 µg/mL (≈ 2.92 µM)
- MIC (Prevotella spp.; KUB No. 6603 Prevotella melaninogenica): 0.25 µg/mL (≈ 1.46 µM)
- MIC (Prevotella spp.; KUB No. 6609 Prevotella buccae): 0.5 µg/mL (≈ 2.92 µM)
- MIC (Prevotella spp.; KUB No. 6611 Prevotella nigrescens): 1 µg/mL (≈ 5.84 µM)
- MIC (Prevotella spp.; KUB No. 6612 Prevotella oris): 0.5 µg/mL (≈ 2.92 µM)
- MIC (Prevotella spp.; KUB No. 6613 Prevotella buccae): 0.5 µg/mL (≈ 2.92 µM)
- MIC (Prevotella spp.; KUB No. 6614 Prevotella intermedia): 1 µg/mL (≈ 5.84 µM)
- MIC (Prevotella spp.; KUB No. 6615 Prevotella buccae): 1 µg/mL (≈ 5.84 µM)
- MIC (Prevotella spp.; KUB No. 6617 Prevotella buccae): 2 µg/mL (≈ 11.7 µM)
- MIC (Prevotella spp.; KUB No. 6618 Prevotella melaninogenica): 0.25 µg/mL (≈ 1.46 µM)
- MIC (Prevotella spp.; KUB No. 6622 Prevotella loescheii): 1 µg/mL (≈ 5.84 µM)
- MIC (Prevotella spp.; KUB No. 6623 Prevotella nigrescens): 1 µg/mL (≈ 5.84 µM)
- MIC (Prevotella spp.; KUB No. 6625 Prevotella melaninogenica): 0.5 µg/mL (≈ 2.92 µM)
- MIC (Prevotella spp.; KUB No. 6626 Prevotella loescheii): 1 µg/mL (≈ 5.84 µM)
- MIC (Prevotella spp.; KUB No. 6629 Prevotella bivia): 8 µg/mL (≈ 46.7 µM)
- MIC (Prevotella spp.; KUB No. 6630 Prevotella nigrescens): 0.5 µg/mL (≈ 2.92 µM)
- MIC (Prevotella spp.; KUB No. 6631 Prevotella jejuni): 0.5 µg/mL (≈ 2.92 µM)
- MICrange (Prevotella spp.; Prevotella spp.): ≤0.12 to 8 µg/mL
- MIC50 (Prevotella spp.; Prevotella spp., read-out: MIC50): 0.5 µg/mL (≈ 2.92 µM)
- MIC90 (Prevotella spp.; Prevotella spp., read-out: MIC90): 2 µg/mL (≈ 11.7 µM)
- MIC (Prevotella spp.; Prevotella, KUB No. 6583 Prevotella nonceiensis): 2 µg/mL (≈ 11.7 µM)
- MIC (Prevotella spp.; Prevotella, KUB No. 6604 Prevotella nonceiensis): 1 µg/mL (≈ 5.84 µM)
- MIC (Prevotella spp.; po, KUB No. 6566 Prevotella oralis): 0.25 µg/mL (≈ 1.46 µM)

— EP4635500A1, “THERAPEUTIC AGENT FOR BACTERIAL INFECTION” (Sumitomo Pharma Co., Ltd., priority 2022, dated 2024)
